Data: patent US9353089B2, “Compositions and methods for the treatment of malaria” (Saint Louis University, priority 2013, dated 2016)
Read-outs that look alike come from different tables or passages of the source.

Tests used:
[1] = tested on: Plasmodium falciparum 3D7 (CQ-sensitive); experiment: In vitro antimalarial assay (malaria SYBR Green I-based fluorescence, MSF), 3D7; assay type: cell-based
Experimental: Stock solutions of each test drug were prepared in DMSO at a concentration of 20 mM. The drug solutions were serially diluted with culture medium and distributed to asynchronous parasite cultures on 96-well plates in quadruplicate in a total volume of 100 μL to achieve 0.5% parasitemia with a 2% hematocrit in a total volume of 100 pt. […] After incubation, 100 μL of lysis buffer with 0.2 μL/mL SYBR Green I was added to each well.
Antimalarial potency of compounds was determined by this technique for both Plasmodium falciparum 3D7 (CQ-sensitive) and Dd2 (multi-drug resistant) strains.

[2] = biological target: Plasmepsin-2 (PM-2; Plm II) (Plasmodium falciparum (isolate HB3), UniProt P46925); experiment: Plasmepsin-2 enzyme inhibition assay; assay type: biochemical; settings: read-out: PM-2 IC50
Chain of Plasmepsin-2 (PM-2; Plm II) (P46925 125-453 limits assumed): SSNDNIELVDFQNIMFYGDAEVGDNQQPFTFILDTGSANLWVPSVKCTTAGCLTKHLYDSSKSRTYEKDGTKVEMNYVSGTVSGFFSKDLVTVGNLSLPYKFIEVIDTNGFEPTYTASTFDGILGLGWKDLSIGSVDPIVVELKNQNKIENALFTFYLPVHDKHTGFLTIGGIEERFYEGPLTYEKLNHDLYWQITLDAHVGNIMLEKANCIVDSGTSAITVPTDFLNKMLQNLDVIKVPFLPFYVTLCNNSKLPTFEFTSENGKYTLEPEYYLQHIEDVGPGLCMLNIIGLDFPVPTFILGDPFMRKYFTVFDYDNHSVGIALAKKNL
Experimental: Plasmepsin-2 (PM-2; Plm II) and Plasmepsin (PM-4; Plm IV) expression and purification was performed following the published protocols (Istvan E S and Goldberg D E, 2005). The final purified protein was activated by diluting the protein to 0.3 mg/mL in activating buffer (0.1 M citrate pH 4.5, 0.1% Tween-20, 50 mM dithiothreitol) and incubated at room temperature for 40 min, then the activated enzyme was diluted in assay buffer (50 mM sodium acetate pH 4.7, 0.01% Tween-20). The enzymatic inhibition reaction was performed in 384 well plates with a total volume of 20 μl. 10 μl of diluted PM-2 or PM-4 enzyme was added to the 384-well plate except blank wells (blank wells add 10 μL of assay buffer) and 20 nL of serials of diluted 1000× compounds were added to the wells with 520 Echo® Liquid Handling System (Labcyte Inc.). 10 μL PM-2 peptide substrate (AnaSpec, Cat#, 62050) with assay buffer was then added to final concentration of 20 μM to start the reaction. After incubation the reaction at room temperature for 60 min, the fluorescence intensity at Ex/Em=360 nm/535 nm was measured using EnVision multilabel plate reader (Perkin-Elmer). The IC50 values were obtained using Graph Pad Prism 4 and are reported in Tables 8 and 9 below as PM-2 IC50 values.

[3] = 3D7, Table 13, read-out: 3D7 IC50
[4] = 3D7, Table 11, read-out: Pf 3D7 IC50

Row | IC50 [1, 3] | Compound | other results
1 | 0.894 µM | COc1ccc(C2(c3ccc(OC)cc3)NC(=N)N(Cc3ccccc3Cl)C2=O)cc1 [Example 234, 3-[(2-chlorophenyl)-methyl]-2-imino-5,5-bis(4-methoxyphenyl)-imidazolidin-4-one] | –
2 | 2.74 µM | COc1ccc(C2(c3ccc(OC)cc3)NC(=N)N(C3CCN(Cc4ccccc4)CC3)C2=O)cc1 [Example 250, 3-(1-benzylpiperidin-4-yl)-2-imino-5,5-bis(4-methoxyphenyl)-imidazolidin-4-one] | –
3 | 0.381 µM | COc1ccc(C2(c3ccc(OC)cc3)NC(=N)N(Cc3cccc(C)c3)C2=O)cc1 [Example 253, 2-imino-5,5-bis(4-methoxyphenyl)-3-[(3-methylphenyl)-methyl]imidazolidin-4-one] | –
4 | 0.828 µM | COc1cccc(C2(c3cccc(OCc4ccccc4)c3)NC(=N)N(C3CCCCC3)C2=O)c1 (centres unmarked) [Example 230] | –
5 | 0.554 µM | COc1ccc(CN2C(=N)NC(c3ccc(OC)cc3)(c3ccc(OC)cc3)C2=O)cc1 [Example 233, 2-imino-5,5-bis(4-methoxyphenyl)-3-[(4-methoxyphenyl)-methyl]imidazolidin-4-one] | –
6 | 4.08 µM | CC(C)COc1ccc(C2(c3ccc(OCC(C)C)cc3)NC(=N)N(C3CCOCC3)C2=O)cc1 [Example 390, 2-imino-5,5-bis[4-(2-methylpropoxy)phenyl]-3-(oxan-4-yl)imidazolidin-4-one] | –
7 | 0.644 µM | COc1ccc(C2(c3ccc(OC)cc3)NC(=N)N(Cc3cccc4ccccc34)C2=O)cc1 [Example 223, 2-imino-5,5-bis(4-methoxyphenyl)-3-(naphthalen-1-ylmethyl)-imidazolidin-4-one] | –
8 | 0.708 µM | COc1ccc(C2(c3ccc(OC)cc3)NC(=N)N(Cc3cccc(OC)c3)C2=O)cc1 [Example 236, 2-imino-5,5-bis(4-methoxyphenyl)-3-[(3-methoxyphenyl)-methyl]imidazolidin-4-one] | –
9 | 0.976 µM | COc1ccc(C2(c3ccc(OC)cc3)NC(=N)N(Cc3cc(C)ccc3C)C2=O)cc1 [Example 272, 3-[(2,5-dimethylphenyl)-methyl]-2-imino-5,5-bis(4-methoxyphenyl) imidazolidin-4-one] | –
10 | 0.4 µM | COc1ccc(C2(c3ccc(OC)cc3)NC(=N)N(C3CCN(Cc4ccccc4O)CC3)C2=O)cc1 [Example 571, 3-(1-(2-hydroxybenzyl)piperidin-4-yl)-2-imino-5,5-bis(4-methoxyphenyl)-imidazolidin-4-one] | –

Continued, molecule first:

Row | Compound | IC50 [1, 3] | other results
11 | COc1ccc(C2(c3ccc(OC)cc3)NC(=N)N(CC(C)(C)C)C2=O)cc1 [Example 252, 3-(2,2-dimethylpropyl)-2-imino-5,5-bis(4-methoxyphenyl)-imidazolidin-4-one] | 0.266 µM | IC50 ([2]; Table 13): 5.28 nM
12 | N=C1NC(c2ccccc2)(c2cccc(-c3ccncc3)c2)C(=O)N1C1CCCCC1 (centres unmarked) [Example 211, 3-cyclohexyl-2-imino-5-phenyl-5-[3-(pyridin-4-yl)phenyl]-imidazolidin-4-one] | 1.03 µM | IC50 ([2]; Table 13): 14.1 nM
13 | N=C1NC(c2ccccc2)(c2ccccc2)C(=O)N1C1CCOCC1 [Example 198, 2-imino-3-(oxan-4-yl)-5,5-diphenyl-imidazolidin-4-one] | > 2.5 µM | IC50 ([2]; Table 13): 118 nM
14 | COc1cccc(C2(c3cccc(OC)c3)NC(=N)N(C3CCCC3)C2=O)c1 [Example 168, 3-cyclopentyl-2-imino-5,5-bis(3-methoxyphenyl)-imidazolidin-4-one] | 1.09 µM | IC50 ([2]; Table 13): 110 nM
15 | CN1C(=N)NC(c2ccccc2)(c2cccc(-c3cccnc3)c2)C1=O (centres unmarked) [Example 135, 2-imino-3-methyl-5-phenyl-5-[3-(pyridin-3-yl)phenyl]-imidazolidin-4-one] | – | IC50 ([2]; Table 12): 1010 nM
16 | Cc1ccc(C2(c3ccc(C)cc3)NC(=N)N(C3CCCCC3)C2=O)cc1 [Example 156, 3-cyclohexyl-2-imino-5,5-bis(4-methylphenyl)-imidazolidin-4-one] | 1.26 µM | IC50 [1, 4]: 1.26 µM; IC50 ([2]; Table 13): 14 nM
17 | COc1ccc(C2(c3ccc(OC)cc3)NC(=N)N(C3CCCCCC3)C2=O)cc1 [Example 220, 3-cycloheptyl-2-imino-5,5-bis(4-methoxyphenyl)-imidazolidin-4-one] | 0.427 µM | IC50 ([1]; 3D7, Table 10, read-out: Pf3D7 IC50): 0.427 µM; IC50 ([2]; Table 13): 2.37 nM
18 | COc1ccc(C2(c3ccc(OC)cc3)NC(=N)N(Cc3ccccc3OC)C2=O)cc1 [Example 248, 2-imino-5,5-bis(4-methoxyphenyl)-3-[(2-methoxyphenyl)-methyl]imidazolidin-4-one] | 0.294 µM | IC50 ([2]; Table 13): 28 nM
19 | N=C1NC(c2ccccc2)(c2ccccc2)C(=O)N1C1CC1 [Example 142, 3-cyclopropyl-2-imino-5,5-diphenylimidazolidin-4-one] | 10.8 µM | IC50 ([2]; Table 13): 1790 nM
20 | COc1ccccc1C1(C2CC2)NC(=N)N(C2CCOCC2)C1=O (centres unmarked) [Example 518, 5-cyclopropyl-2-imino-5-(2-methoxyphenyl)-3-(tetrahydro-2H-pyran-4-yl)imidazolidin-4-one] | 5.32 µM | –
21 | N=C1NC(c2cccc(-c3cncc(Cl)c3)c2)(C2CCCCC2)C(=O)N1C1CCOCC1 (centres unmarked) [Example 516, 5-(3-(5-chloropyridin-3-yl)phenyl)-5-cyclohexyl-2-imino-3-(tetrahydro-2H-pyran-4-yl)imidazolidin-4-one] | 0.28 µM | –
22 | COc1cc(C2(C3CCCCC3)NC(=N)N(C3CCOCC3)C2=O)ccc1Cl (centres unmarked) [Example 501, 5-(4-chloro-3-methoxyphenyl)-5-cyclohexyl-2-imino-3-(tetrahydro-2H-pyran-4-yl)imidazolidin-4-one] | 1.54 µM | –
23 | CCC(CN1C(=N)NC(c2ccccc2)(c2ccccc2)C1=O)c1ccccc1 (centres unmarked) [drawing 195] | – | IC50 ([1]; 3D7, read-out: Pf3D7 IC50 (μM), Table 10): 2.76 µM
24 | N=C1NC(c2ccc(Cl)cc2)(C2CCCCC2)C(=O)N1C1CCOCC1 (centres unmarked) [Example 574, 5-(4-chlorophenyl)-5-cyclohexyl-2-imino-3-(tetrahydro-2H-pyran-4-yl)imidazolidin-4-one] | 0.27 µM | –
25 | N#Cc1cccc(-c2cccc(C3(C4CC4)NC(=N)N(C4CCOCC4)C3=O)c2)c1 (centres unmarked) [Example 414, 3′-(4-cyclopropyl-2-imino-5-oxo-1-(tetrahydro-2H-pyran-4-yl)imidazolidin-4-yl)-[1,1′-biphenyl]-3-carbonitrile] | 0.293 µM | –
26 | N=C1NC(c2ccccc2)(c2cccc(Oc3ccccc3)c2)C(=O)N1C1CCCCC1 (centres unmarked) [Example 238, 3-cyclohexyl-2-imino-5-(3-phenoxyphenyl)-5-phenylimidazolidin-4-one] | 0.424 µM | IC50 [1, 4]: 0.424 µM
27 | CNC(=O)c1cccc(C2(c3ccccc3)NC(=N)N(C3CCCCC3)C2=O)c1 (centres unmarked) [Example 273, 3-(1-cyclohexyl-2-imino-5-oxo-4-phenylimidazolidin-4-yl)-N-methylbenzamide] | 1.38 µM | –
28 | N=C1NC(c2ccc(OC(F)(F)F)cc2)(C2CC2)C(=O)N1C1CCOCC1 (centres unmarked) [Example 494, 5-cyclopropyl-2-imino-3-(tetrahydro-2H-pyran-4-yl)-5-(4-(trifluoromethoxy)phenyl)imidazolidin-4-one] | 0.68 µM | –
29 | COc1cccc(C2(c3cccc(-c4ccccn4)c3)NC(=N)N(C3CCCCC3)C2=O)c1 (centres unmarked) [Example 227, 3-cyclohexyl-2-imino-5-(3-methoxyphenyl)-5-[3-(pyridin-2-yl)phenyl]-imidazolidin-4-one] | 0.657 µM | –
30 | N=C1NC(c2ccccc2Cl)(C2CC2)C(=O)N1C1CCOCC1 (centres unmarked) [Example 500, 5-(2-chlorphenyl)-5-cyclopropyl-2-imino-3-(tetrahydro-2H-pyran-4-yl)imidazolidin-4-one] | 2.36 µM | –
